The target in one test is BTK in mouse bone marrow (Mus musculus (Mouse), UniProt P35991). In words: Mouse Bone Marrow Assay (MSD ELISA of BTK degradation in bone marrow). The settings on record: female C57BL/6J mice, single dose of Dose A, bone marrow collected after 24 hours. It is filed as in vivo. The method, then: Female C57BL/6J mice (Jackson Laboratories) were used for this study. Compounds or vehicle/control were prepped with EtOH; PEG-400; Phosal 53 MCT (10:30:60, v/v). Four mice were tested per compound or vehicle/control. On Day 1, mice were administered a single dose of Dose A. On Day 2 (after 24 hours), tissue (bone marrow) was collected from one hind leg per mouse.
An MSD (Meso Scale Discovery) ELISA (enzyme-linked immunosorbent assay) based assay was used to determine BTK degradation in mouse bone marrow. The following materials and equipment were used: 10% NP40 solution (nonionic polyoxyethylene surfactant, ThermoFisher, cat no. 28324); protease inhibitor mini tablet (Roche, cat no. 05 892 970 001); PhosphoSTOP™ tablet (Roche, cat no. 04 906 837 001); Pierce™ BCA Protein Assay Kit (Thermofisher, Cat No. 23225); Precellys® 2 mL lysing tube with 2.8 mm beads (VWR, cat no. 10032-756); Bertin Precellys® 24/Cryolys® cooling system; 96-well MSD streptavidin pre-coated plates (MSD, cat no. L15SA-1); MSD Blocker A (MSD, cat no. R93BA-4); capture antibody, biotinylated BTK mAb (BD Biosciences, cat no. 624008; custom order); primary detection antibody, BTK RpAb (rabbit polyclonal antibody, CST, cat no. 8547S, D3H5 clone); secondary detection antibody, anti-Rabbit-Sulfo-Tag (MSD, cat no. R32AB-1); read Buffer, 4× (MSD, cat no. R92TC-1); recombinant BTK protein (Thermofisher, cat no. PR5442A); MSD Tris Wash Buffer (10×) (MSD, cat no. R61TX-1); PBS (phosphate-buffered saline); deionized water (diH2O); Lysis Buffer [0.2% NP40 in PBS+Protease Inhibitor tablet (1 tablet/10 mL)+PhosphoSTOP tablet (1 tablet/10 mL)]; 3% MSD Blocker A [MSD Blocker A+450 mL diH2O+50 mL]; and 10×MSD Tris Wash Buffer.
Lysis buffer [(PBS+0.2% NP40+PI (protease inhibitor)+PhosphoSTOP)] was prepared and put on ice until it was fully cold. Ice cold lysis buffer […] was added to each Precellys® tube containing beads and bone marrow sample. Sample tubes were transferred into Precellys® machine and homogenized using 5000 rpm—2×20 seconds. The sample lysates were centrifuged at 14,000 rpm for 20 minutes at 4° C. after homogenizing.
The protein concentration was determined using Pierce™ BCA Protein Assay Kit following manufacturer's recommended protocol. The protein normalized working solution was prepared, using 30 μg protein per sample lysate for assay.
A 300 ng/ml working stock solution of recombinant BTK protein in lysis buffer was prepared, and the sample was serially diluted at 3-fold dilution (10-point assay, highest concentration was 300 ng/mL and lowest concentration was 0.015 ng/mL)
MSD plate coating: Coating antibody (biotinylated-BTK mAb) stock solution was prepared at 1 μg/mL in PBS buffer. 50 μL/well capture antibody (Biotinylated BTK mAb) solution was added, and the plates were shaken gently at ambient temperature for two hours. The plates were washed 3 times with 1×MSD Tris Wash Buffer in a plate washer (300 μL/well), and the plates were blocked with 3% MSD Blocker A (150 μL/well). The plates were incubated for an additional 1-2 hours at ambient temperature with gentle shaking. The plates were washed 3 times with 1×MSD wash buffer using plate washer. Bone marrow lysates (30 μg) at a final volume of 50 μL/well were added into the plates. The serially diluted standard samples were added to the same plates at a final volume of 50 μL/well. The plates were incubated overnight at 4° C. with gentle shaking.
The plates were washed three times with 1×MSD wash buffer (prepared from 10× concentration buffer) using plate washer. Primary detection antibody at 50 μL/well was added (BTK RpAb; 1:1000 dilution in 1% MSD Blocker A). The plates were incubated for two hours at ambient temperature with gentle shaking. The plates were washed three times with 1×MSD wash buffer using plate washer. Anti-Rabbit-SULFO-TAG secondary antibodies (50 μl/well) were added, 1:500 diluted in 1% MSD Blocker A, and the plates were incubated for one to two hours at ambient temperature. […]

Test [1] deals with BTK protein in human whole blood (Homo sapiens (Human), UniProt Q06187). In words: Btk protein in human whole blood MSD ELISA based assay (BTK degradation). It is filed as cell-based. The settings on record: 6 hours, maximum BTK degradation compared to DMSO only treated samples, read-out: hWB BTK dMax (%). As for the experimental part:
Btk protein degradation was tested using an Meso Scale Discovery-ELISA system (MSD-ELISA): (1) Test compounds were added to human whole blood; (2) human whole blood cells treated with test compounds were lysed; (3) lysed cells were treated with capture antibody, an antibody to Btk; (4) lysed cells were treated with […] to Btk; and (5) lysed cells were treated with anti-mouse antibody (tagged).
Specifically, about 80 μl of fresh human whole blood from healthy donors was transferred into each well of a 96-well V-bottom plate (Costar, Cat No. 3894). Using a TECAN™ D300e Digital Dispenser (Tecan)), 1:4 serially diluted compounds [(8 pt assay) in DMSO solution (final 0.2%) starting at 3 μM top concentration], were added in duplicate. Thereafter, plates were placed in a 37° C. incubator and incubated for 6 hours.
At the end of incubation, 80 μl of 2×CST lysis buffer (Cell Signaling Technology, Cat No. 9803), prepared from a 10× stock solution, was added per well to lyse the blood. Plates were then sealed with a plate sealer and the samples were frozen overnight at −80° C.
Total amount of BTK protein remaining in the blood samples after compound treatment was measured using MSD-ELISA. After thawing the frozen plates, blood lysates were mixed thoroughly and transferred to small spot high-bind MSD plates (Meso Scale Discovery, Cat No. L45XB-3) and coated with capturing antibody, rabbit anti-human BTK (D3H5) (Cell Signaling Technology, Cat No. 8547CF). Thereafter, primary detection antibody, mouse anti-human BTK monoclonal antibody, (BD Biosciences, Cat No. 611117) and secondary detection antibody, anti-mouse SULFO-TAG (Meso Scale Discovery, Cat No. R32AC-1) were added. The assay plates were read on an MSD S600 plate reader by the addition of 2×MSD read buffer (Meso Scale Discovery, R92TC-1). All reagent transfers, including blood lysis, was conducted using a Biomed i7 liquid handler. From the dose response curves, DC50 values were calculated by averaging data from duplicate experiments. and Curve fitting was done by non-linear regression using GraphPad Prism. The DC50 values are reported in Table 2 in the hWB BTK DC50 (nM) column The Dmax values represent the maximum amount of BTK degradation observed upon compound treatment compared to DMSO only treated samples. The dMax (%) values are reported in Table 2 in the hWB BTK dMax (%) column.
Background: An ELISA detects its analyte on a solid surface through an enzyme-linked reagent.

Chain of BTK in mouse bone marrow (P35991 whole entry): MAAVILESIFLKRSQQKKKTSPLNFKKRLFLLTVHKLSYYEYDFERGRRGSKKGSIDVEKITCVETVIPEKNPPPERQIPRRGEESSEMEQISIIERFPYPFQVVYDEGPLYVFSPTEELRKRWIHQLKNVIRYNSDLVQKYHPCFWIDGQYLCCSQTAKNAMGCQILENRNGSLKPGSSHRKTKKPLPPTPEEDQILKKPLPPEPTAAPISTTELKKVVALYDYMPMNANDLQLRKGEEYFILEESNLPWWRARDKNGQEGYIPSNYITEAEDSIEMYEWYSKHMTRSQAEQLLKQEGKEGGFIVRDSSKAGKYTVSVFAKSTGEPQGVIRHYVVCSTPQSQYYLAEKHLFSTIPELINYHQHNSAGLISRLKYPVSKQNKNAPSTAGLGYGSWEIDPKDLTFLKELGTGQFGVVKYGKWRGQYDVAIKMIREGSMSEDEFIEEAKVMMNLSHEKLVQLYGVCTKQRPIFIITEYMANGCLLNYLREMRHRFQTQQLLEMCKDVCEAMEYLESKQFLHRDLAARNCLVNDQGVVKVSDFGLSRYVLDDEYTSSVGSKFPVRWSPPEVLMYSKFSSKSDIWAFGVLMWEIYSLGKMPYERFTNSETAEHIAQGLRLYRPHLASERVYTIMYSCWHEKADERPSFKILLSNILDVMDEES
Chain of BTK protein in human whole blood (Q06187 whole entry): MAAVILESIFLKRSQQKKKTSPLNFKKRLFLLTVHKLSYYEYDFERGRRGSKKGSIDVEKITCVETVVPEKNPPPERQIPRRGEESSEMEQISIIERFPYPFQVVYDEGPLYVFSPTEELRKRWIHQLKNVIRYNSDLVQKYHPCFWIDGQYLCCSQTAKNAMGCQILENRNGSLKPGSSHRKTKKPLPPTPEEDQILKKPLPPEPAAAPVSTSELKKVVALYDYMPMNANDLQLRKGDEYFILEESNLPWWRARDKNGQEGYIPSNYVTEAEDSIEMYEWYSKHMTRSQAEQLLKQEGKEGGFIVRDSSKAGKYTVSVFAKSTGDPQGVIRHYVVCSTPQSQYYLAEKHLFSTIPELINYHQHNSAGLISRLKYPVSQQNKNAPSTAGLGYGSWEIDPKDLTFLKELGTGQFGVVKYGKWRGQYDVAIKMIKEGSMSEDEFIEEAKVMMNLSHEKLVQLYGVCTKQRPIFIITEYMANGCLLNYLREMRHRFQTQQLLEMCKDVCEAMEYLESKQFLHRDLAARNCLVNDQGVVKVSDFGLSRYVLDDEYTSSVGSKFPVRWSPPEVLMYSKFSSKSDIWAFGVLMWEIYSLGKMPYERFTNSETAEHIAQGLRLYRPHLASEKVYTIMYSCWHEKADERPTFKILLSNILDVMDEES

For orientation: Dmax means the largest share of the target that was removed. In the case of `CC[C@H]1CN(CCc2ccc(N3CCC(=O)NC3=O)cc2)CCN1c1ccc(Nc2cc(-c3ccc([C@@H](C)NC(=O)c4nc(C(C)(C)C)no4)c(C)c3)ncn2)nc1` [Example 6, 3-tert-butyl-N-[(1R)-1-{4-[6-({5-[(2S)-4-{2-[4-(2,4-dioxo-1,3-diazinan-1-yl)phenyl]ethyl}-2-ethylpiperazin-1-yl]pyridin-2-yl}amino)pyrimidin-4-yl]-2-methylphenyl}ethyl]-1,2,4-oxadiazole-5-carboxamide], the “Mouse Bone Marrow (%) (% remaining BTK, vehicle versus treated)” value at BTK in mouse bone marrow is 19%. Further, the Dmax in test [1] came to 99.8%.

`Cc1c([C@@H](C)NC(=O)c2nc(C(C)(C)C)no2)ccc(-c2cc(Nc3ccc(N4CCN(CCc5ccc(N6CCC(=O)NC6=O)cc5)C[C@@H]4C)cn3)ncn2)c1F` [Example 10, 3-tert-butyl-N-[(1R)-1-{4-[6-({5-[(2S)-4-{2-[4-(2,4-dioxo-1,3-diazinan-1-yl)phenyl]ethyl}-2-methylpiperazin-1-yl]pyridin-2-yl}amino)pyrimidin-4-yl]-3-fluoro-2-methylphenyl}ethyl]-1,2,4-oxadiazole-5-carboxamide]: the “Mouse Bone Marrow (%) (% remaining BTK, vehicle versus treated)” value on BTK in mouse bone marrow came to 9%. Further, the Dmax in test [1] stood at 98.5%.

`Cc1cc(-c2cc(Nc3ccc(N4CCN(CCc5ccc(N6CCC(=O)NC6=O)cc5)CC4(C)C)cn3)ncn2)ccc1[C@@H](C)NC(=O)c1nc(C(C)(C)C)no1` [Example 9, 3-tert-butyl-N-{(1R)-1-[4-(6-{{5-(4-{2-[4-(2,4-dioxo-1,3-diazinan-1-yl)phenyl]ethyl}-2,2-dimethylpiperazin-1-yl)pyridin-2-yl}amino}pyrimidin-4-yl)-2-methylphenyl]ethyl}-1,2,4-oxadiazole-5-carboxamide]: at BTK in mouse bone marrow, the “Mouse Bone Marrow (%) (% remaining BTK, vehicle versus treated)” value was 31%. In addition, the greatest degradation seen (Dmax) in test [1] is 99.5%.

As for `Cc1cc(-c2cc(Nc3ccc(N4CCN(CCc5ccc(N6CCC(=O)NC6=O)c(F)c5)C[C@H]4C)cn3)ncn2)ccc1[C@@H](C)NC(=O)c1nc(C(C)(C)C)no1` [Example 5, 3-tert-butyl-N-[(1R)-1-{4-[6-({5-[(2R)-4-{2-[4-(2,4-dioxo-1,3-diazinan-1-yl)-3-fluorophenyl]ethyl}-2-methylpiperazin-1-yl]pyridin-2-yl}amino)pyrimidin-4-yl]-2-methylphenyl}ethyl]-1,2,4-oxadiazole-5-carboxamide], the “Mouse Bone Marrow (%) (% remaining BTK, vehicle versus treated)” value at BTK in mouse bone marrow was 12%. For the same molecule, the greatest degradation seen (Dmax) in test [1] was 99.3%.

On to `Cc1c([C@@H](C)NC(=O)c2nc(C(C)(C)C)no2)ccc(-c2cc(Nc3ccc(N4CCN(CCc5ccc(N6CCC(=O)NC6=O)cc5)CC4)cn3)ncn2)c1F` [Example 11, 3-tert-butyl-N-{(1R)-1-[4-(6-{[5-(4-{2-[4-(2,4-dioxo-1,3-diazinan-1-yl)phenyl]ethyl}piperazin-1-yl)pyridin-2-yl]amino}pyrimidin-4-yl)-3-fluoro-2-methylphenyl]ethyl}-1,2,4-oxadiazole-5-carboxamide], for which, on BTK in mouse bone marrow, the “Mouse Bone Marrow (%) (% remaining BTK, vehicle versus treated)” value is recorded as 29%. In test [1], the maximal degradation (Dmax) stood at 97.7%.

The values above are taken from patent US12172992B2, “Pyrimidines for degrading Bruton's tyrosine kinase” (AbbVie Inc., priority 2022, dated 2024).
